From patent US9783503B2, “Crystalline forms of an estrogen receptor modulator” (Genentech, Inc., priority 2014, dated 2017)
Entries after “also recorded” stand apart in the source; their conditions may differ. Counter-ions that a name gives are not always drawn.

Experiments:
breast tumor cell = test: Breast tumor cell proliferation; assay type: cell-based
[1] = tested on: xenograft models of ER+ breast cancer; test: Tamoxifen-sensitive and tamoxifen-resistant xenograft models of ER+ breast cancer; assay type: in vivo
Oral bioavailability = details: in vivo
[2] = Static storage stability at elevated humidity, checked by XRPD; assay type: physicochemical
Description: X-Ray powder diffraction patterns were collected on a Bruker AXS C2 GADDS or a Bruker AXS D8 Advance diffractometer.

[3] = Gravimetric Vapor Sorption (GVS); assay type: physicochemical
Method: Sorption isotherms were obtained using a SMS DVS Intrinsic moisture sorption analyzer, controlled by DVS Intrinsic Control software v1.0.0.30. The sample temperature was maintained at 25° C. by the instrument controls. The humidity was controlled by mixing streams of dry and wet nitrogen, with a total flow rate of 200 mL/min. The relative humidity was measured by a calibrated Rotronic probe (dynamic range of 1.0-100% RH), located near the sample. The weight change, (mass relaxation) of the sample as a function of % RH was constantly monitored by the microbalance (accuracy+0.005 mg).
Typically 5-20 mg of sample was placed in a tared mesh stainless steel basket under ambient conditions. The sample was loaded and unloaded at 40% RH and 25° C. (typical room conditions). A moisture sorption isotherm was performed as outlined below (2 scans giving 1 complete cycle). The standard isotherm was performed at 25° C. at 10% RH intervals over a 0-90% RH range. Data analysis was undertaken in Microsoft Excel using DVS Analysis Suite v6.0.0.7.
The sample was recovered after completion of the isotherm and re-analyzed by XRPD.

[4] = Thermodynamic aqueous solubility; details: for solubility at 24 h: water, 25 °C, thermodynamic from solid
Method: The suspension was equilibrated at 25° C. for 24 hours then the pH was measured. The suspension was then filtered through a glass fibre C filter. […] Different volumes of the standard, diluted and undiluted sample solutions were injected.
Analysis was performed on an Agilent HP1100 series system equipped with a diode array detector and using ChemStation software vB.02.01-SR1.

CC/C(=C(/c1ccc(/C=C/C(=O)O)cc1)c1ccc2[nH]ncc2c1)c1ccc(F)cc1Cl [(E)-3-(4-((E)-2-(2-Chloro-4-fluorophenyl)-1-(1H-indazol-5-yl)but-1-en-1-yl)phenyl)acrylic acid]
breast tumor cell proliferation (breast tumor cell): inhibition of breast tumor cell proliferation
anti-tumor activity ([1]; both tamoxifen-sensitive and tamoxifen-resistant xenograft models): dose dependent anti-tumor activity
ER-α tumor levels ([1]; tamoxifen-resistant xenograft models): reduction of ER-α tumor levels
Efficacious doses ([1]; xenograft models of ER+ breast cancer): 1 to 100 mg/kg/day
oral bioavailability (Oral bioavailability): good oral bioavailability

CC/C(=C(/c1ccc(/C=C/C(=O)O)cc1)c1ccc2[nH]ncc2c1)c1ccc(F)cc1Cl [Form 1, (E)-3-(4-((E)-2-(2-chloro-4-fluorophenyl)-1-(1H-indazol-5-yl)but-1-en-1-yl)phenyl)acrylic acid, N-methyl glucamine salt]
change of XRPD pattern after storage ([2]; 25° C. and 96% RH for 7 days): no visible change; also recorded: No difference in the XRPD patterns
change of XRPD pattern after storage ([2]; 40° C. and 75% RH for 7 days): no visible change; also recorded: no difference in the XRPD patterns
change by XRPD upon extended storage ([2]; extended storage in high humidity conditions at 40° C.): no visible change
hysteresis of sorption isotherm ([3]; 0-90% RH, 25° C.): no hysteresis
change of XRPD pattern after GVS analysis ([3]; after completion of the isotherm): No change in the XRPD pattern
mass uptake ([3]; between 0-90% RH, 25° C.): ca. 4.75%
pH of saturated aqueous solution ([4]; saturated aqueous solution, 25° C., 24 hours): about 5.45
solubility at 24 h ([4]; pH 5.45, water, aqueous solubility, saturated aqueous solution, equilibrated at 25° C. for 24 hours): 15.8 mg/mL

CC/C(=C(/c1ccc(/C=C/C(=O)O)cc1)c1ccc2[nH]ncc2c1)c1ccc(F)cc1Cl [N-Methylglucamine, (2S,3R,4R,5R)-2,3,4,5,6-pentahydroxy-N-methylhexan-1-aminium (E)-3-(4-((E)-2-(2-chloro-4-fluorophenyl)-1-(1H-indazol-5-yl)but-1-enyl)phenyl)acrylate]
solubility at 24 h ([4]; Solubility, aqueous, crystalline salt prepared from MeCN (300 Vols)): 10.6 mg/mL

CC/C(=C(/c1ccc(/C=C/C(=O)O)cc1)c1ccc2[nH]ncc2c1)c1ccc(F)cc1Cl [Pattern 2, (E)-3-(4-((E)-2-(2-chloro-4-fluorophenyl)-1-(1H-indazol-5-yl)but-1-en-1-yl)phenyl)acrylic acid, N-methyl glucamine salt]
change of XRPD pattern after storage ([2]; 40° C. and 75% RH for 7 days): converted to Form 1

C[C@]12CC[C@@H]3c4ccc(O)cc4C[C@@H](CCCCCCCCC[S+]([O-])CCCC(F)(F)C(F)(F)F)[C@H]3[C@@H]1CC[C@@H]2O (stereo partly shown) [fulvestrant, reference compound]
efficacy compared with the free acid ([1]; in some of these models): less efficacious
